Assay results taken from PMC5587527, “A fragment-based approach leading to the discovery of a novel binding site and the selective CK2 inhibitor CAM4066” (Bioorganic & Medicinal Chemistry, 2017).

Assays:
CK2α [1] = target: T1, CK2α (Homo sapiens, UniProt P68400); assay: biochemical; conditions: read-out: % Inhibition at 500 μM
CK2α [2] = target: T1, CK2α; conditions: from ITC Kd

T1 sequence (P68400 whole entry): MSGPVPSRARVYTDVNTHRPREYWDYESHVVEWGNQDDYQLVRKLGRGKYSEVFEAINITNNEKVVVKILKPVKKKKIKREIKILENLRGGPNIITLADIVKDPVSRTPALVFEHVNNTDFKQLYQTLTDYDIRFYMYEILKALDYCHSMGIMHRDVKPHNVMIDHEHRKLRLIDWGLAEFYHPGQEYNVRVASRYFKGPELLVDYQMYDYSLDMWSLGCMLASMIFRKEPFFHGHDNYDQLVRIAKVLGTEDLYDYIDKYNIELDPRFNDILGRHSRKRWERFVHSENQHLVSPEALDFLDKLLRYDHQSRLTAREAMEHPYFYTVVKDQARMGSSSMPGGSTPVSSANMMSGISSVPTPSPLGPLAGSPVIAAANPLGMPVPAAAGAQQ

SMILES	inhibition at 500 µM (CK2α [1]) [%]	ligand efficiency (CK2α [2])
CCCNCc1ccc(-c2ccccc2)c(Cl)c1 [Compound 12]	33 ± 5	–
OCCCNCc1ccc(-c2ccccc2)c(Cl)c1 [Compound 13]	47 ± 5	–
COC(=O)CC(=O)NCCCNCc1ccc(-c2ccccc2)c(Cl)c1.Cl [Compound 19]	46 ± 2	0.23
CCNCc1ccc(-c2ccccc2)c(Cl)c1 [Compound 11]	23 ± 6	–
CNCc1ccc(-c2ccccc2)c(Cl)c1 [Compound 10]	44 ± 12	–
CS(=O)(=O)NCCCNCc1ccc(-c2ccccc2)c(Cl)c1 [Compound 18]	51 ± 10	–
CC(=O)NCCCNCc1ccc(-c2ccccc2)c(Cl)c1 [Compound 15]	39 ± 3	–
NCCCCNCc1ccc(-c2ccccc2)c(Cl)c1 [Compound 14]	18 ± 2	–
CC(=O)NCCNCc1ccc(-c2ccccc2)c(Cl)c1 [Compound 17]	12 ± 4	–
NC(=O)CCNCc1ccc(-c2ccccc2)c(Cl)c1 [Compound 16]	16 ± 6	–
O=C(O)CC(=O)NCCCNCc1ccc(-c2ccccc2)c(Cl)c1 [Compound 20]	20 ± 4	0.19
